Laboratory results published in patent publication US20240343706A1, “PIPERIDINE-2,6-DIONE DERIVATIVES WHICH BIND TO CEREBLON, AND METHODS OF USE THEREOF” (Captor Therapeutics S.A., priority 2019, published 2024).

Assays:
SALL4 = SALL4 degradation assay, Kelly cell line (western blot densitometry); format: cell-based; details: Kelly cells; for % of protein reduction based on densitometry values, SALL4 (24 H): summary Table 10, 20 μM (some compounds 10 and 20 μM); for % of SALL4 protein reduction, based on densitometry values: 24 h
From the text: (§1) After primary and secondary Ab staining, the membranes were washed and signals developed. The densitometry analysis was implemented to obtain the numeric values used later in the protein level evaluation process.

IKZF1 = IKZF1 degradation assay, H929 cell line (western blot densitometry); format: cell-based; details: H929 cells; for % of protein reduction based on densitometry values, IKZF 1 (24 H): summary Table 10, 20 μM (some compounds 10 and 20 μM); for % of IKZF1 α protein reduction based on densitometry values: 24 h
From the text: as §1

[1] = target: CRBN-DDB1 protein complex (Homo sapiens, UniProt Q96SW2); test: Fluorescence polarization (FP) assay, displacement of Cy5-labelled thalidomide; details: 25 nM CRBN-DDB1, 5 nM Cy5-labelled thalidomide, read-out: CRBN binding Ki
Sequence of CRBN-DDB1 protein complex (Q96SW2 whole entry): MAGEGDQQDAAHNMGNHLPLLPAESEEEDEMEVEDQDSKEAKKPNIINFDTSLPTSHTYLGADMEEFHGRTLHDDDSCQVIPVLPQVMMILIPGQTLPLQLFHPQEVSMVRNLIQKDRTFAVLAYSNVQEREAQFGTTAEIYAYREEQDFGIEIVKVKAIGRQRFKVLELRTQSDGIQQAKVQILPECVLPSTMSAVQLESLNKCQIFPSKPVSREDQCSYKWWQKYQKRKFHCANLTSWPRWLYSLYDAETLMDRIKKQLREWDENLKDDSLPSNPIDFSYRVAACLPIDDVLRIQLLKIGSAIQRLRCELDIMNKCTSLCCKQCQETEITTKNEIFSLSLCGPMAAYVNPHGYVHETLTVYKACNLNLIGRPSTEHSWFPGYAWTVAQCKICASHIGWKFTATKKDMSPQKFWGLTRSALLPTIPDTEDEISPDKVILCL
Sequence of CRBN-DDB1 protein complex (Q16531 whole entry partner): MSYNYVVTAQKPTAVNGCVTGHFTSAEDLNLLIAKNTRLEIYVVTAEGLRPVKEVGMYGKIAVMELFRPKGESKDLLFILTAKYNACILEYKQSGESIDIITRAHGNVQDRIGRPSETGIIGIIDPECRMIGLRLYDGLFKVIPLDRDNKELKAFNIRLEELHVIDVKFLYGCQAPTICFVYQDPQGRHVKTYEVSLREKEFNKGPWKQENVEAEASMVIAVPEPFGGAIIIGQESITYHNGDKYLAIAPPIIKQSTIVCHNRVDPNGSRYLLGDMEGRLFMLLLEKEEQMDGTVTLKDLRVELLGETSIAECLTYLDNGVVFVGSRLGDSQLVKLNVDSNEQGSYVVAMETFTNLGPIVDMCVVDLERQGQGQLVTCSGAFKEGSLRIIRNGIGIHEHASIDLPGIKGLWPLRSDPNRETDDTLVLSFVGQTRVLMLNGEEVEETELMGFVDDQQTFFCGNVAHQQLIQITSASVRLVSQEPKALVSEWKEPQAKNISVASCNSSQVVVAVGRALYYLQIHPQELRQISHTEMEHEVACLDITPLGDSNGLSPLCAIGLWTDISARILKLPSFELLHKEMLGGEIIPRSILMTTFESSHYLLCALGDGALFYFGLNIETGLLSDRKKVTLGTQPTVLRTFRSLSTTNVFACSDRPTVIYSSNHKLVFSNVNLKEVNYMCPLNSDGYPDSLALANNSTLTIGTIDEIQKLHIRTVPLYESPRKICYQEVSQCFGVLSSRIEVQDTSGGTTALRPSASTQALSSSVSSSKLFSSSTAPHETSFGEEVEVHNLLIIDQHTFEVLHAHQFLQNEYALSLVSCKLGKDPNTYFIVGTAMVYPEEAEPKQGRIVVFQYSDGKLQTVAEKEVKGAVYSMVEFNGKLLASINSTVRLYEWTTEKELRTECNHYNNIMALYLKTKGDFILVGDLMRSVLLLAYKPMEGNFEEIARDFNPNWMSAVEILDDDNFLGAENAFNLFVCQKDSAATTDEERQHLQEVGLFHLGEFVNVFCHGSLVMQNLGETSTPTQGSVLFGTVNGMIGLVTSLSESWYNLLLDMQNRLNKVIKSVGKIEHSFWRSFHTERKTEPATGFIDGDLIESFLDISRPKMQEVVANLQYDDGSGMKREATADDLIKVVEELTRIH
Procedure: CRBN-DDB1 protein complex was mixed with Cy5-labelled thalidomide and a compound to be tested (the “test compound”). […] The test solution was added to a 384-well assay plate.
The plate was spun-down (1 min, 1000 rpm, 22° C.) and then shaken using a VibroTurbulator for 10 min at room temperature (20-25° C.), with the frequency set to level 3. The assay plate with protein and the tracer was incubated for 60 min at room temperature (20-25° C.) prior to read-out with a plate reader.
The FP experiment was carried out with various concentrations of the test compounds in order to measure Ki values.

CK1α = CK1α degradation assay, Kelly cell line (western blot densitometry); format: cell-based; details: Kelly cells; for % of protein reduction based on densitometry values, CK1α (24 H): summary Table 10, 20 μM (some compounds 10 and 20 μM); for % of CK1α protein reduction, based on densitometry values: 24 h
From the text: as §1

IKZF3 = IKZF3 degradation assay, H929 cell line (western blot densitometry); format: cell-based; details: H929 cells; for % of IKZF3 protein reduction based on densitometry values, IKZF3 Band I / % of IKZF3 protein reduction based on densitometry values, IKZF3 Band II: 24 h; for % of protein reduction based on densitometry values, IKZF3 (24 H): summary Table 10, 10 and 20 μM

O=C1CCC(NC(=O)c2cccc3[nH]c(C(F)(F)F)nc23)C(=O)N1 (centres unmarked) [Compound 25, N-(2,6-dioxopiperidin-3-yl)-2-(trifluoromethyl)-1H-benzo[d]imidazole-7-carboxamide]
% of protein reduction based on densitometry values, SALL4 (24 H) (SALL4): ≤25% (≤25% for 0-25% of SALL4 protein reduction)
% of protein reduction based on densitometry values, IKZF 1 (24 H) (IKZF1): ≤25% (≤25% for 0-25% of IKZF1 protein reduction)
Ki [1]: < 1 µM
% of protein reduction based on densitometry values, CK1α (24 H) (CK1α): ≤25% (≤25% for 0-25% of CK1a protein reduction)

Cn1cnc2c(C(=O)NC3CCC(=O)NC3=O)cccc21 (centres unmarked) [Compound 4, N-(2,6-dioxopiperidin-3-yl)-1-methyl-1H-benzo[d]imidazole-4-carboxamide]
% of protein reduction based on densitometry values, SALL4 (24 H) (SALL4): ≤25% (≤25% for 0-25% of SALL4 protein reduction)
% of protein reduction based on densitometry values, IKZF 1 (24 H) (IKZF1): ≤25% (≤25% for 0-25% of IKZF1 protein reduction)
Ki [1]: 1 to 10 µM
% of protein reduction based on densitometry values, CK1α (24 H) (CK1α): ≤25% (≤25% for 0-25% of CK1a protein reduction)

O=C1CCC(NC(=O)c2cccc3cnsc23)C(=O)N1 (centres unmarked) [Compound 50, N-(2,6-dioxopiperidin-3-yl)benzo[d]isothiazole-7-carboxamide]
% of SALL4 protein reduction, based on densitometry values (SALL4; 10 μM): ≤25% (≤25% for 0-25% of SALL4 protein reduction)
% of SALL4 protein reduction, based on densitometry values (SALL4; 20 μM): ≤25% (≤25% for 0-25% of SALL4 protein reduction)
% of protein reduction based on densitometry values, SALL4 (24 H) (SALL4): ≤25% (≤25% for 0-25% of SALL4 protein reduction)
% of IKZF1 α protein reduction based on densitometry values (IKZF1; 10 μM): ≤25% (≤25% for 0-25% of IKZF1 protein reduction)
% of IKZF1 α protein reduction based on densitometry values (IKZF1; 20 μM): ≤25% (≤25% for 0-25% of IKZF1 protein reduction)
% of protein reduction based on densitometry values, IKZF 1 (24 H) (IKZF1): ≤25% (≤25% for 0-25% of IKZF1 protein reduction)
Ki [1]: 1 to 10 µM
% of CK1α protein reduction, based on densitometry values (CK1α; 10 μM): ≤25% (≤25% for 0-25% of CK1a protein reduction)
% of CK1α protein reduction, based on densitometry values (CK1α; 20 μM): ≤25% (≤25% for 0-25% of CK1a protein reduction)
% of protein reduction based on densitometry values, CK1α (24 H) (CK1α): ≤25% (≤25% for 0-25% of CK1a protein reduction)
% of IKZF3 protein reduction based on densitometry values, IKZF3 Band I (IKZF3; 10 μM): ≤25% (≤25% for 0-25% of IKZF3 protein reduction)
% of IKZF3 protein reduction based on densitometry values, IKZF3 Band II (IKZF3; 10 μM): ≤25% (≤25% for 0-25% of IKZF3 protein reduction)
% of IKZF3 protein reduction based on densitometry values, IKZF3 Band I (IKZF3; 20 μM): ≤25% (≤25% for 0-25% of IKZF3 protein reduction)
% of IKZF3 protein reduction based on densitometry values, IKZF3 Band II (IKZF3; 20 μM): ≤25% (≤25% for 0-25% of IKZF3 protein reduction)
% of protein reduction based on densitometry values, IKZF3 (24 H) (IKZF3): ≤25% (≤25% for 0-25% of IKZF3 protein reduction)

Cc1nc2c(C(=O)NC3CCC(=O)NC3=O)ccnc2[nH]1 (centres unmarked) [Compound 36, N-(2,6-dioxopiperidin-3-yl)-2-methyl-3H-imidazo[4,5-b]pyridine-7-carboxamide]
% of protein reduction based on densitometry values, SALL4 (24 H) (SALL4): ≤25% (≤25% for 0-25% of SALL4 protein reduction)
% of protein reduction based on densitometry values, IKZF 1 (24 H) (IKZF1): ≤25% (≤25% for 0-25% of IKZF1 protein reduction)
Ki [1]: 1 to 10 µM
% of protein reduction based on densitometry values, CK1α (24 H) (CK1α): ≤25% (≤25% for 0-25% of CK1a protein reduction)

O=C1CCC(NC(=O)c2cc(F)cc3[nH]cnc23)C(=O)N1 (centres unmarked) [Compound 8, N-(2,6-dioxopiperidin-3-yl)-6-fluoro-1H-benzo[d]imidazole-4-carboxamide]
% of protein reduction based on densitometry values, SALL4 (24 H) (SALL4): ≤25% (≤25% for 0-25% of SALL4 protein reduction)
% of protein reduction based on densitometry values, IKZF 1 (24 H) (IKZF1): ≤25% (≤25% for 0-25% of IKZF1 protein reduction)
Ki [1]: 1 to 10 µM
% of protein reduction based on densitometry values, CK1α (24 H) (CK1α): ≤25% (≤25% for 0-25% of CK1a protein reduction)

O=C1CCC(NC(=O)c2c(F)ccc3[nH]cnc23)C(=O)N1 (centres unmarked) [Compound 7, N-(2,6-dioxopiperidin-3-yl)-5-fluoro-1H-benzo[d]imidazole-4-carboxamide]
% of protein reduction based on densitometry values, SALL4 (24 H) (SALL4): ≤25% (≤25% for 0-25% of SALL4 protein reduction)
% of protein reduction based on densitometry values, IKZF 1 (24 H) (IKZF1): ≤25% (≤25% for 0-25% of IKZF1 protein reduction)
Ki [1]: 1 to 10 µM
% of protein reduction based on densitometry values, CK1α (24 H) (CK1α): ≤25% (≤25% for 0-25% of CK1a protein reduction)

O=C1CCC(NC(=O)c2cccc3c2NC(=O)C3)C(=O)N1 (centres unmarked) [Compound 1, N-(2,6-dioxopiperidin-3-yl)-2-oxoindoline-7-carboxamide]
% of protein reduction based on densitometry values, SALL4 (24 H) (SALL4): ≤25% (≤25% for 0-25% of SALL4 protein reduction)
% of protein reduction based on densitometry values, IKZF 1 (24 H) (IKZF1): ≤25% (≤25% for 0-25% of IKZF1 protein reduction)
Ki [1]: 10 to 50 µM
% of protein reduction based on densitometry values, CK1α (24 H) (CK1α): ≤25% (≤25% for 0-25% of CK1a protein reduction)

Nc1cccc2c1C(=O)N(C1CCC(=O)NC1=O)C2=O (centres unmarked) [Pomalidomide, reference compound]
% of SALL4 protein reduction, based on densitometry values (SALL4; 10 μM): ≥75% (≥75% for 75-100% of SALL4 protein reduction)
% of SALL4 protein reduction, based on densitometry values (SALL4; 20 μM): ≥75% (≥75% for 75-100% of SALL4 protein reduction)
% of protein reduction based on densitometry values, SALL4 (24 H) (SALL4): ≥75% (≥75% for 75-100% of SALL4 protein reduction)
% of IKZF1 α protein reduction based on densitometry values (IKZF1; 10 μM): ≥75% (≥75% for 75-100% of IKZF1 protein reduction)
% of IKZF1 α protein reduction based on densitometry values (IKZF1; 20 μM): ≥75% (≥75% for 75-100% of IKZF1 protein reduction)
% of protein reduction based on densitometry values, IKZF 1 (24 H) (IKZF1): ≥75% (≥75% for 75-100% of IKZF1 protein reduction)
% of CK1α protein reduction, based on densitometry values (CK1α; 10 μM): >25% (>25% for 26-74% of CK1a protein reduction)
% of CK1α protein reduction, based on densitometry values (CK1α; 20 μM): >25% (>25% for 26-74% of CK1a protein reduction)
% of protein reduction based on densitometry values, CK1α (24 H) (CK1α): >25% (>25% for 26-74% of CK1a protein reduction)
% of IKZF3 protein reduction based on densitometry values, IKZF3 Band I (IKZF3; 10 μM): ≥75% (≥75% for 75-100% of IKZF3 protein reduction)
% of IKZF3 protein reduction based on densitometry values, IKZF3 Band II (IKZF3; 10 μM): ≥75% (≥75% for 75-100% of IKZF3 protein reduction)
% of IKZF3 protein reduction based on densitometry values, IKZF3 Band I (IKZF3; 20 μM): ≥75% (≥75% for 75-100% of IKZF3 protein reduction)
% of IKZF3 protein reduction based on densitometry values, IKZF3 Band II (IKZF3; 20 μM): ≥75% (≥75% for 75-100% of IKZF3 protein reduction)
% of protein reduction based on densitometry values, IKZF3 (24 H) (IKZF3): ≥75% (≥75% for 75-100% of IKZF3 protein reduction)

O=C1CCC(NC(=O)c2ccnc3cc[nH]c23)C(=O)N1 (centres unmarked) [Compound 37, N-(2,6-dioxopiperidin-3-yl)-1H-pyrrolo[3,2-b]pyridine-7-carboxamide]
% of protein reduction based on densitometry values, SALL4 (24 H) (SALL4): ≤25% (≤25% for 0-25% of SALL4 protein reduction)
% of protein reduction based on densitometry values, IKZF 1 (24 H) (IKZF1): ≤25% (≤25% for 0-25% of IKZF1 protein reduction)
Ki [1]: 10 to 50 µM
% of protein reduction based on densitometry values, CK1α (24 H) (CK1α): ≤25% (≤25% for 0-25% of CK1a protein reduction)

O=C1CCC(NC(=O)c2cccc3[nH]c(C(F)F)nc23)C(=O)N1 (centres unmarked) [Compound 23, 2-(difluoromethyl)-N-(2,6-dioxopiperidin-3-yl)-1H-benzo[d]imidazole-7-carboxamide]
% of protein reduction based on densitometry values, SALL4 (24 H) (SALL4): ≤25% (≤25% for 0-25% of SALL4 protein reduction)
% of protein reduction based on densitometry values, IKZF 1 (24 H) (IKZF1): ≤25% (≤25% for 0-25% of IKZF1 protein reduction)
Ki [1]: 1 to 10 µM
% of protein reduction based on densitometry values, CK1α (24 H) (CK1α): ≤25% (≤25% for 0-25% of CK1a protein reduction)

CC(C)Cc1nc2c(C(=O)NC3CCC(=O)NC3=O)cccc2[nH]1 (centres unmarked) [Compound 24, N-(2,6-dioxopiperidin-3-yl)-2-isobutyl-1H-benzo[d]imidazole-7-carboxamide]
% of protein reduction based on densitometry values, SALL4 (24 H) (SALL4): ≤25% (≤25% for 0-25% of SALL4 protein reduction)
% of protein reduction based on densitometry values, IKZF 1 (24 H) (IKZF1): ≤25% (≤25% for 0-25% of IKZF1 protein reduction)
Ki [1]: 1 to 10 µM
% of protein reduction based on densitometry values, CK1α (24 H) (CK1α): ≤25% (≤25% for 0-25% of CK1a protein reduction)
